Key:
[1] = tested on: Hep3B xenograft tumor; assay: Immunostaining for Ki-67 and cleaved caspase-3 in Hep3B xenograft tumor at 48 hours after administration; format: in vivo, NOD-SCID mice; settings: HuBA-1-3D 1 mg/kg i.p., H3B-6527 50 mg/kg, FGF-401 10 mg/kg, BLU-554 30 mg/kg oral, alone or combined
Experimental: (§1) Hep3B cells (1×10^6 cells) were transplanted subcutaneously into the right flank of NOD-SCID mice. At the stage where the tumor volume reached 250 to 350 mm 3, these mice were divided into the following 8 groups of 6 mice each, and administered from the same day: • the Vehicle group; • the group receiving HuBA-1-3D (1 mg/kg); • the group receiving H3B-6527 (50 mg/kg); • the group receiving FGF-401 (10 mg/kg); • the group receiving BLU-554 (30 mg/kg); • the group receiving HuBA-1-3D (1 mg/kg)+H3B-6527 (50 mg/kg); • the group receiving HuBA-1-3D (1 mg/kg)+FGF-401 (10 mg/kg); and • the group receiving HuBA-1-3D (1 mg/kg)+BLU-554 (30 mg/kg).
(§2) HuBA-1-3D was intraperitoneally administered, while FGFR4 inhibitors (H3B-6527, FGF-401 and BLU-554) were orally administered. At 48 hours after administration, three mice in each group were sacrificed to excise their tumors, and the tumors were fixed in 10% formalin and then embedded in paraffin to prepare sections for immunostaining. In addition, tissue extracts were prepared for Western blotting.
Cancer cell proliferation and apoptosis in the Hep3B tumor at 48 hours after administration were analyzed by immunostaining in which Ki-67 or cleaved caspase-3 expression was used as an indicator.

[2] = tested on: Hep3B xenograft tumor; assay: Western blotting of apoptosis markers and cyclin B1 in Hep3B xenograft tumor at 48 hours after administration; format: in vivo, NOD-SCID mice; settings: three animals per group, HuBA-1-3D 1 mg/kg, H3B-6527 50 mg/kg, FGF-401 10 mg/kg, BLU-554 30 mg/kg
Experimental: as §1, §2
Subsequently, apoptosis (cleaved caspase-3 and Cleaved PARP) and cancer cell proliferation (cyclin B1) in the Hep3B xenograft tumor upon administration of each agent were analyzed by Western blotting.

[3] = tested on: human hepatic cancer cell line Hep3B xenograft; assay: Antitumor effect in Hep3B xenograft therapeutic model, HuBA-1-3D and H3B-6527; format: in vivo, NOD-scid mice; settings: alone or combined
Description: The antitumor effect obtained upon combined administration of HuBA-1-3D antibody and H3B-6527 serving as a small molecule inhibitor against FGFR4 (Cancer Res. 2017 Dec. 15; 77(24):6999-7013) was studied in a xenograft therapeutic model based on the human hepatic cancer cell line Hep3B. • (1) Hep3B cells were transplanted subcutaneously into the right flank of NOD-scid mice (Day 0). At the stage where the mean tumor volume reached around 100 mm^3 (Day 14), the mice were divided into the following 6 groups, and administered from the same day for 11 days with HuBA-1-3D at a frequency of twice a week (Days 14, 18, 22 and 25) and/or with H3B-6527 twice a day (BID) and five times a week in a cycle of administration for 5 days and withdrawal for 2 days (Days 14, 15, 16, 17, 18, 21, 22, 23, 24 and 25): • the Vehicle group (N=8) • the group receiving H3B-6527 (50 mg/kg body weight, twice a day) (N=8); • the group receiving HuBA-1-3D (0.3 mg/kg body weight) (N=8); • the group receiving HuBA-1-3D (1 mg/kg body weight) (N=8); • the group receiving H3B-6527 (50 mg/kg body weight) and HuBA-1-3D (0.3 • mg/kg body weight) (N=8); and • the group receiving H3B-6527 (50 mg/kg body weight) and HuBA-1-3D (1 mg/kg body weight) (N=8).
The tumor volume was measured at a frequency of twice a week, and an animal whose tumor volume reached 1,500 mm^3 was excluded from observation.

[4] = tested on: human hepatic cancer cell line Hep3B xenograft; assay: Antitumor effect in Hep3B xenograft therapeutic model, HuBA-1-3D and BLU-554; format: in vivo, mouse; settings: alone or combined
Description: (§3) In an attempt to further verify the enhancing effect on antitumor activity upon combined administration of HuBA-1-3D antibody and FGFR4 inhibitor as in the case of the above examples, the antitumor effect obtained upon combined administration of BLU-554 and HuBA-1-3D was studied in a xenograft therapeutic model based on the human hepatic cancer cell line Hep3B, wherein BLU-554 inhibits FGFR4-specific tyrosine kinase activity by specifically binding to cysteine at amino acid position 552 of the ATP-binding region present in the region located at amino acid positions 545 to 562 of FGFR4 (Cancer Discov. 2019 December; 9(12):1696-1707), as in the case of H3B-6527 and FGF-401.
Hep3B cells (1×10^6 cells) were transplanted (Day 0), and at the point of time when the mean tumor volume exceeded 100 mm^3 (Day 14), animals were divided into the following 4 groups and administered from the same day: • the Vehicle group (N=8); • the group receiving BLU-554 (30 mg/kg body weight, twice a day) (N=8); • the group receiving HuBA-1-3D (1 mg/kg body weight) (N=8); and • the group receiving BLU-554 (30 mg/kg body weight) and HuBA-1-3D (1 mg/kg body weight) (N=8).
HuBA-1-3D was intraperitoneally administered once a day 4 times in total on Days 14, 17, 21 and 24, while BLU-554 was orally administered twice a day 10 times in total on Days 14, 15, 16, 17, 18, 21, 22, 23, 24 and 25. […]

[5] = tested on: human hepatic cancer cell line Hep3B xenograft; assay: Antitumor effect in Hep3B xenograft therapeutic model, HuBA-1-3D and CH518324/Debio1347; format: in vivo, mice; settings: alone or combined
Description: In each group, a mouse whose tumor volume exceeded 1,500 mm^3 was sacrificed at that point of time.

[6] = molecular target: FGFR4 (Homo sapiens, UniProt P22455); settings: reported in Mol Cancer Ther (2014); 13(11); 2547-58; read-out: tyrosine kinase inhibitory activity (IC50) against FGFR4; cited from earlier work
[7] = tested on: human hepatic cancer cell line Hep3B xenograft; assay: Antitumor effect in Hep3B xenograft therapeutic model, HuBA-1-3D and FGF-401; format: in vivo, NOD-SCID mice; settings: alone or combined
Description: as §3, with “Then, in” for “In”, “(FGF-401),” for “as in the case of the above examples,”, “FGF-401” for “BLU-554”, “(Mol. Cancer Ther.” for “(Cancer Discov.”, “18(12):2194-2206),” for “9(12):1696-1707),”, “H3B-6527.” for “H3B-6527 and FGF-401.”
Hep3B cells (1×10^6 cells) were transplanted subcutaneously into the right flank of NOD-SCID mice (Day 0). At the stage where the mean tumor volume exceeded 100 mm^3 (Day 14), the mice were divided into the following 6 groups, and administered from the same day: • the Vehicle group (N=8); • the group receiving FGF-401 (10 mg/kg body weight, twice a day) (N=8); • the group receiving HuBA-1-3D (0.3 mg/kg body weight) (N=8); • the group receiving HuBA-1-3D (1 mg/kg body weight) (N=8); • the group receiving FGF-401 (10 mg/kg body weight) and HuBA-1-3D (0.3 mg/kg body weight) (N=8); and • the group receiving FGF-401 (10 mg/kg body weight) and HuBA-1-3D (1 mg/kg body weight) (N=8).
HuBA-1-3D was intraperitoneally administered once a day 4 times in total on Days 14, 17, 21 and 24, while FGF-401 was orally administered twice a day 10 times in total on Days 14, 15, 16, 17, 18, 21, 22, 23, 24 and 25. The combined administration of HuBA-1-3D and FGF-401 was performed 4 times in total on Days 14, 17, 21 and 24. In each group, a mouse whose tumor volume exceeded 1,500 mm^3 was sacrificed at that point of time.

Sequence of FGFR4 (P22455 22-802): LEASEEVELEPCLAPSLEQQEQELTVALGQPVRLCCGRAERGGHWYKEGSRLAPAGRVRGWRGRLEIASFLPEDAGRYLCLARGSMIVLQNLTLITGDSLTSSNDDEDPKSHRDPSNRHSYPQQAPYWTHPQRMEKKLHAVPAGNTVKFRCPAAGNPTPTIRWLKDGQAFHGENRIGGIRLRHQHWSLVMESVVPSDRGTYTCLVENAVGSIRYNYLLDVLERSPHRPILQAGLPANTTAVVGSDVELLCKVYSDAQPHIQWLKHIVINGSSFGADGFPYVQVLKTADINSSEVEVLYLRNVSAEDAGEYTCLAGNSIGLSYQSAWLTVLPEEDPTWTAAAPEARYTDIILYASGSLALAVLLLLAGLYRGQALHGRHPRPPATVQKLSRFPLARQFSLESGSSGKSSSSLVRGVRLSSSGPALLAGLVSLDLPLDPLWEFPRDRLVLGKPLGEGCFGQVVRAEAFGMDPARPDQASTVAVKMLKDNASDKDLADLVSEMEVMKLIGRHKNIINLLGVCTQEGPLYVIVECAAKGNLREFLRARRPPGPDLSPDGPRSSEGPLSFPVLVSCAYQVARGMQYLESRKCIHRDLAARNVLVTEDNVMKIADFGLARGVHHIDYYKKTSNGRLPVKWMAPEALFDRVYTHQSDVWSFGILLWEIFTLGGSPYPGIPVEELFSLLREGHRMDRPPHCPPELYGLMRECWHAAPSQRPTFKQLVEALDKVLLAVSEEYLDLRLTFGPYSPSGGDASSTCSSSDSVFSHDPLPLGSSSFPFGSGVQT

| SMILES | apoptotic cells stained with cleaved caspase-3 in the tumor [1] | proportion of cancer cells stained with Ki-67 compared to the Vehicle group [1] | expression level of cyclin B1 (cell proliferation marker) compared to the Vehicle group [2] | expression of apoptosis markers (Cleaved caspase-3 and cleaved PARP) [2] | tumor volume ([3]; Day 32 (7 days after completion of administration), H3B-6527 50 mg/kg twice a day, HuBA-1-3D 1 mg/kg twice a week) | T/C ([3]; Day 32, vs Vehicle, H3B-6527 50 mg/kg twice a day, HuBA-1-3D 1 mg/kg) | tumor volume ([3]; Day 38 (13 days after final administration), H3B-6527 50 mg/kg, HuBA-1-3D 1 mg/kg) | tumor presence / tumor disappearance at excision (animals) ([3]; Day 38, H3B-6527 50 mg/kg, HuBA-1-3D 1 mg/kg) | tumor weight ([3]; tumors excised on Day 38, H3B-6527 50 mg/kg, HuBA-1-3D 1 mg/kg) | mean tumor volume ([4]; Day 38 (13 days after final administration), BLU-554 30 mg/kg twice a day oral, HuBA-1-3D 1 mg/kg i.p.) | T/C ([4]; Day 38, vs Vehicle, BLU-554 30 mg/kg, HuBA-1-3D 1 mg/kg) | mean tumor volume ([5]; Day 31 (6 days after final administration), CH518324/Debio1347 50 mg/kg once a day oral, HuBA-1-3D 1 mg/kg i.p.) | T/C ([5]; Day 31, vs Vehicle, CH518324/Debio1347 50 mg/kg, HuBA-1-3D 1 mg/kg) | IC50 [6] | tumor volume ([7]; Day 28 (3 days after final administration), FGF-401 10 mg/kg twice a day oral, HuBA-1-3D 1 mg/kg i.p.) | T/C ([7]; Day 28, vs Vehicle, FGF-401 10 mg/kg, HuBA-1-3D 1 mg/kg) | antitumor effect compared to tumor volume in the Vehicle group ([7]; Day 35 (10 days after final administration), FGF-401 10 mg/kg, HuBA-1-3D 1 mg/kg, Dunnett) |
| --- | --- | --- | --- | --- | --- | --- | --- | --- | --- | --- | --- | --- | --- | --- | --- | --- | --- |
| C=CC(=O)Nc1cc(N2CCN(CC)CC2)ccc1Nc1cc(N(C)C(=O)Nc2c(Cl)c(OC)cc(OC)c2Cl)ncn1 [H3B-6527, N-{2-[(6-{[(2,6-dichloro-3,5-dimethoxyphenyl)carbamoyl](methyl)amino}-4-pyrimidinyl)amino]-5-(4-ethyl-1-piperazinyl)phenyl}acrylamide] | not detected | no change | no difference | induced in none of the three animals | 647.8±146.2 mm^3 | 47% | 1222.0±326.5 mm^3 | all the 8 animals in each group were confirmed to have tumor | 1.010 ± 0.260 g |  |  |  |  |  |  |  |  |
| C=CC(=O)N[C@H]1CCOC[C@H]1Nc1ncc2cc(-c3c(Cl)c(OC)cc(OC)c3Cl)ccc2n1 [BLU-554, N-[(3 S,4S)-3-[[6-(2,6-dichloro-3,5-dimethoxyphenyl)quinazolin-2-yl]amino]oxan-4-yl]prop-2-enamide] | not detected | no change | no difference | induced in none of the three animals |  |  |  |  |  | 688.8±562.4 mm^3 | 63.7% |  |  |  |  |  |  |
| Cc1nc2ccc(-n3ncc(C(=O)c4cc5ccccc5[nH]4)c3N)cc2[nH]1 [CH518324/Debio1347] |  |  |  |  |  |  |  |  |  |  |  | 673.8±271.8 mm^3 | 56.2% | 290 nM |  |  |  |
| COCCNc1cc(NC(=O)N2CCCc3cc(CN4CCN(C)CC4=O)c(C=O)nc32)ncc1C#N [FGF-401, N-[5-cyano-4-[(2-methoxyethyl)amino]-2-pyridinyl]-7-formyl-3,4-dihydro-6-[(4-methyl-2-oxo-1-piperazinyl)methyl]-1,8-naphthyridine-1(2H)-carboxamide] | not detected | no change | no difference | induced in none of the three animals |  |  |  |  |  |  |  |  |  |  | 388.9±94.8 mm^3 | 56.8% | significant antitumor effect |
